From patent publication US9187397B2 (STC.UNM, priority 2004, dated 2015)
Entries after “also recorded” stand apart in the source; their conditions may differ. Where two headings read alike, the source gives them in different places. One block for each molecule: values may come before it.

Experiments:
AP-1 = AP-1 luciferase reporter cellular assay (293/AP1-luc, PMA-stimulated); assay type: cell-based, human; settings: for activity in the AP-1 cellular assay (screen): 15 μM, compared with curcumin; for IC50: Homo sapiens
Method: This cell line is obtained by co-transfection of pAP1-luc and pTK-hyg containing plasmids followed by the addition of hygromycin (200 μg/ml) to maintain cell selection.
After 24 hr, the cells had reached approximately 60% confluency. […] Plate wells were gently washed with PBS, pH 7.4, and lysed with passive lysis buffer (1×, 100 μl, Promega). The subsequent chemiluminescent lysates were analyzed with the Luciferase Assay System (Promega) utilizing a TD-20/20 luminometer. The relative light units (photons) were determined by the addition of firefly luciferase substrate (75 μl) to cell lysate (10 μl). The light units were then normalized to the amount of protein in the well (mg/ml) with BCA™ Protein Assay Kit (Pierce) and standardized to percent of control (PMA).
(§1) This cell line is stably transfected with a luciferase reporter controlled by an AP-1 dependent promoter. The cell is stimulated with phorbol ester which activates AP-1. AP-1 then binds to one of three promoter regions on the cells DNA leading to the production of a luciferase enzyme. Luciferin is added to the cell lysates and the luciferase enzyme catalyzes a cleavage of luciferin leading to the emission of light.

[1] = Ferric Reducing/Anti-oxidant Power assay (FRAP assay); parameters: key to FRAP: active as an antioxidant (+); settings: for activity in the FRAP assay: compared with curcumin; for FRAP: antioxidant activity
Method: Anti-oxidant activity was also measured in the Ferric reducing/anti-oxidant power assay (FRAP assay) in which the analogs are reacted with a ferric tripyridyltriazine complex. For the FRAP assay (Benzie et al., Meth. Enzymol. 1999, 299, 15-27), the ferric complex was prepared at room temperature by reaction of ferric chloride (16.7 mM) and 2,4,6-tripyridyl-s-triazine (8.33 mM) in acetate buffer (0.25 M) to pH 3.6. The FRAP reagent was used immediately after preparation. […] The reaction was mixed by vortexing, allowed to stabilize for 5 min and the absorbance recorded on a Perkin Elmer UV/Vis Lambda 2S. […] The synthetic analog of α-tocopherol (vitamin E), Trolox, was used as a reference standard (10 μM in ethanol).
The second assay used, the FRAP assay, determines the analogs abilities to reduce a Fe(III) tripyridyltriazine complex to a Fe(II) tripyridyltriazine complex. The following FIGS. 3A-3C) show analogs active in the FRAP assay.

[2] = Total Radical-trapping Anti-oxidant Parameter assay (TRAP assay); parameters: key to TRAP: active as an antioxidant (+); settings: for activity in the TRAP assay: compared with curcumin; for TRAP: antioxidant activity
Method: This assay is also known as the Total radical-trapping anti-oxidant parameter assay (TRAP assay). For the TRAP assay (Re et al., Free Rad. Biol. […] The turquoise colored reaction was allowed to stabilize for 5 min and the absorbance monitored on a Perkin Elmer UV/Vis Lambda 2S. […] The following FIGS. 2A-2C) show the analogs active in the TRAP assay.

NF-κB = NF-κB luciferase reporter cellular assay (293T/NF-κB-luc, TNFα-stimulated); assay type: cell-based, human; settings: for inhibition of the activation of NF-κB by TNFα (screen): 10 μM, compared with curcumin; for IC50: Homo sapiens, HEK-293T
Method: The cell line is derived from human 293T embryonic kidney cells expressing the large T antigen containing a chromosomal integration of a luciferase reporter construct regulated by 6 copies of the NF-κB response element (Panomics, Inc.). This stable clonal cell line is obtained by co-transfection of pNF-κB-luc and pTK-hyg containing plasmids followed by the addition of hygromycin (200 μg/ml) to maintain cell selection.
The cell line was grown in a humidified atmosphere at 37° C. in 5% CO2/95% air and maintained in Dulbecco's Modified Eagle's Medium (DMEM-high glucose containing 4 mM glutamine) containing fetal bovine serum (FBS, 10%), sodium pyruvate (1 mM), penicillin (100 units/ml), streptomycin (100 μg/ml) and hygromycin (100 μg/m) to maintain cell selection (Gibco/Invitrogen).
The 293T/NF-κB-luc cells were re-plated 24 hr prior to treatment, into 24-well cell culture plates in media without hygromycin, to prevent it from interfering with the assay. The cells were then allowed to grow and attach, to the wells, for 24 hr in a humidified atmosphere at 37° C. in 5% CO2/95% air. […] The cells then were placed again in a humidified atmosphere at 37° C. in 5% CO2/95% air for 7 hr. Plate wells were gently washed with PBS, pH 7.4, and lysed with passive lysis buffer (1×, 100 μl, Promega). The subsequent chemiluminescent lysates were analyzed with the Luciferase Assay System (Promega) utilizing a TD-20/20 luminometer. The relative light units (photons) were determined by the addition of firefly luciferase substrate (75 μl) to cell lysate (10 μl). The light units were then normalized to the amount of protein in the well (mg/ml) with BCA™ Protein Assay Kit (Pierce) and standardized to percent of control (TNFα).
as §1, with “This assay utilized a commercially available cell line (Panomics 293T-luc cellular assay) developed for screening inhibitors of NF-κB. This” for “This”, “NF-κB” for “AP-1”, “tumor necrosis factor alpha (TNFα)” for “phorbol ester”, “NF-κB. NF-κB” for “AP-1. AP-1”, “six” for “three”, “cell's” for “cells”
This cell line was developed by Panomics for screening potential inhibitors of NF-κB. Cells are stimulated with TNF-α to express luciferase, whose activity is monitored in a chemiluminometer.
An NF-κB reporter stable cell line from human 293T embryonic kidney cells (293T/NFκB-luc) (Panomics) was grown in a humidified atmosphere at 37° C. in 5% CO2/95% air. The cells were maintained in Dulbecco's Modified Eagle's Medium (DMEM—high glucose containing 4 mM glutamine) supplemented with 10% fetal bovine serum (FBS), 1 mM sodium pyruvate, 100 units/ml penicillin, 100 μg/m streptomycin and 100 μg/ml hygromycin (Gibco/Invitrogen, Carlsbad, Calif.)) to maintain cell selection. One day prior to treatment, the 293T/NFκB-luc cells were plated into 24-well cell culture plates (Costar) at approximately 70% confluency in the above media without hygromycin. The following day cells were fed fresh media 1 hour prior to treatment. […] The cells were placed again in a humidified atmosphere at 37° C. in 5% CO2/95% air for 7 hours. Plate wells were gently washed with phosphate buffered saline, pH 7.4, and lysed with 1× passive lysis buffer (Promega). The subsequent lysates were analyzed with the Luciferase Assay System (Promega) utilizing a TD-20/20 luminometer (Turner Designs). The firefly luciferase relative light units were normalized to protein (mg/ml) with BCATM Protein Assay Kit (Pierce) and standardized to TNF-α control.

[3] = inhibition of PMA-induced AP-1 activation, 293/AP1-luc cells, Table 10, read-out: AP-1 IC50
[4] = inhibition of TNFα-induced NF-κB activation, 293T/NF-κB-luc cells, Table 5, read-out: IC50
[5] = inhibition of TNFα-induced NF-κB activation, Table 10, read-out: NF-κB IC50
[6] = inhibition of TNF-α-induced NF-κB activation, Panomics 293T/NFκB-luc, second Table 12, read-out: IC50

activity in the AP-1 cellular assay (screen) (AP-1): Active
SMILES: CC(=O)C=Cc1ccccc1O [35q]

activity in the AP-1 cellular assay (screen) (AP-1): more active than curcumin
SMILES: COc1cccc(OC)c1/C=C/C(=O)/C=C/c1c(OC)cccc1OC [20l]

activity in the AP-1 cellular assay (screen) (AP-1): most active
inhibition of the activation of NF-κB by TNFα (screen) (NF-κB): more active than curcumin
SMILES: COc1cc(/C=C/C(=O)c2ccc(O)c(OC)c2)ccc1O [45a]
activity in the FRAP assay ([1]; 10 μM in ethanol): active
activity in the TRAP assay ([2]; 10 μM in ethanol): more active than curcumin

activity in the AP-1 cellular assay (screen) (AP-1): more active than curcumin
IC50 (AP-1; [3]): 6 µM
inhibition of the activation of NF-κB by TNFα (screen) (NF-κB): more active than curcumin
IC50 (NF-κB; [4]): 6.8 µM
IC50 (NF-κB; [5]): 6.7 µM
SMILES: COc1cc(/C=C/C(=O)/C(C)=C(O)/C=C/c2ccc(O)c(OC)c2)ccc1O [6a]
FRAP ([1]; 10 μM in ethanol, Table 5): +
FRAP ([1]; Table 10): +
TRAP ([2]; 10 μM in ethanol, Table 5): +
TRAP ([2]; Table 10): +

activity in the AP-1 cellular assay (screen) (AP-1): more active than curcumin
inhibition of the activation of NF-κB by TNFα (screen) (NF-κB): more active than curcumin
SMILES: O=C(/C=C/c1ccccc1C(F)(F)F)/C=C/c1ccccc1C(F)(F)F [20w]

IC50 (NF-κB; [6]): 5 ± 0.3 µM
SMILES: O=C(/C=C/c1ccccc1C(F)(F)F)/C=C/c1ccccc1C(F)(F)F [Compound 5]

activity in the AP-1 cellular assay (screen) (AP-1): Active
SMILES: N#Cc1ccc(C(=O)/C=C/c2ccccc2)cc1 [46al]

SMILES: O=C(/C=C/c1ccc(O)c(O)c1)/C=C/c1ccc(O)c(O)c1 [20af]
activity in the FRAP assay ([1]; 10 μM in ethanol): more active than curcumin
activity in the TRAP assay ([2]; 10 μM in ethanol): more active than curcumin

inhibition of the activation of NF-κB by TNFα (screen) (NF-κB): activity comparable to curcumin
SMILES: O=C(C1OC1c1ccccc1)C1OC1c1ccccc1 (stereo not shown) [42b]

IC50 (NF-κB; [6]): 3.4 ± 0.2 µM
SMILES: O=C(/C=C/c1cccnc1)/C=C/c1cccnc1 [Compound 3]

activity in the AP-1 cellular assay (screen) (AP-1): more active than curcumin
IC50 (AP-1; [3]): 11.7 µM
inhibition of the activation of NF-κB by TNFα (screen) (NF-κB): more active than curcumin
SMILES: O=C(/C=C/c1ccccc1O)/C=C/c1ccccc1O [20q]
activity in the TRAP assay ([2]; 10 μM in ethanol): more active than curcumin
TRAP ([2]; 10 μM in ethanol, Table 5): +
TRAP ([2]; Table 10): +

SMILES: COc1cc(CCC(=O)C(Cc2ccccc2)=C(O)CCc2ccc(O)c(OC)c2)ccc1O [15a]
activity in the TRAP assay ([2]; 10 μM in ethanol): more active than curcumin

activity in the AP-1 cellular assay (screen) (AP-1): most active
SMILES: COc1cc(/C=C/C(=O)c2ccccc2)ccc1O [48a]
activity in the FRAP assay ([1]; 10 μM in ethanol): active

IC50 (NF-κB; [6]): 6.7 ± 1.2 µM
SMILES: COc1cc(/C=C/C(=O)/C(C)=C(O)/C=C/c2ccc(O)c(OC)c2)ccc1O [Compound 2]

SMILES: COc1cc(/C=C2\CCC/C(=C\c3ccc(O)c(OC)c3)C2=O)ccc1O [38a]
FRAP ([1]; 10 μM in ethanol, Table 5): +
FRAP ([1]; Table 10): +
TRAP ([2]; 10 μM in ethanol, Table 5): +
TRAP ([2]; Table 10): +
activity in the AP-1 cellular assay (screen) (AP-1): more active than curcumin
IC50 (AP-1; AP1, read-out: AP-1 IC50 (μM)): 7.3 µM

inhibition of the activation of NF-κB by TNFα (screen) (NF-κB): more active than curcumin
SMILES: COc1cc(/C=C/C(C)=O)ccc1O [35a]
activity in the FRAP assay ([1]; 10 μM in ethanol): active

SMILES: CN1C(c2ccccc2)CC(=O)CC1c1ccccc1 (stereo not shown) [52b]
inhibition of the activation of NF-κB by TNFα (screen) (NF-κB): more active than curcumin; also recorded: activity comparable to curcumin

activity in the AP-1 cellular assay (screen) (AP-1): more active than curcumin
IC50 (AP-1; [3]): 8.3 µM
inhibition of the activation of NF-κB by TNFα (screen) (NF-κB): more active than curcumin
IC50 (NF-κB; [4]): 5.4 µM
IC50 (NF-κB; [5]): 5.4 µM
SMILES: COc1cc(/C=C/C(=O)/C=C/c2ccc(OC(C)=O)c(OC)c2)ccc1OC(C)=O [20ag]
FRAP ([1]; 10 μM in ethanol, Table 5): +
FRAP ([1]; Table 10): +

SMILES: COc1cc(/C=C/C(=O)/C=C(O)/C=C/c2ccc(O)c(OC)c2)ccc1O [3a]
FRAP ([1]; Table 10): +
TRAP ([2]; Table 10): +
IC50 (NF-κB; [5]): 8.2 µM

inhibition of the activation of NF-κB by TNFα (screen) (NF-κB): more active than curcumin
SMILES: O=C(/C=C/c1cccc(C(F)(F)F)c1)/C=C/c1cccc(C(F)(F)F)c1 [20v]

activity in the AP-1 cellular assay (screen) (AP-1): more active than curcumin
inhibition of the activation of NF-κB by TNFα (screen) (NF-κB): more active than curcumin
SMILES: COc1cc(/C=C/C(=O)/C=C/c2cc(OC)cc(OC)c2)cc(OC)c1 [20o]

inhibition of the activation of NF-κB by TNFα (screen) (NF-κB): more active than curcumin
SMILES: COc1cc(CCC(=O)C(C)=C(O)CCc2ccc(O)c(OC)c2)ccc1O [14a]
activity in the TRAP assay ([2]; 10 μM in ethanol): more active than curcumin

SMILES: COc1ccc(/C=C/C(=O)/C=C(O)/C=C/c2ccc(OC)c(O)c2)cc1O [3h]
activity in the TRAP assay ([2]; 10 μM in ethanol): more active than curcumin

activity in the AP-1 cellular assay (screen) (AP-1): more active than curcumin
SMILES: COc1ccccc1/C=C/C(=O)/C=C/c1ccccc1OC [20c]

activity in the AP-1 cellular assay (screen) (AP-1): more active than curcumin
IC50 (AP-1; [3]): 1.4 µM
inhibition of the activation of NF-κB by TNFα (screen) (NF-κB): more active than curcumin
IC50 (NF-κB; [4]): 6.4 µM
IC50 (NF-κB; [5]): 6.4 µM
SMILES: COc1ccc(OC)c(/C=C/C(=O)/C=C/c2cc(OC)ccc2OC)c1 [20m]

SMILES: COc1cc(/C=C/C(=O)/C=C/c2ccc(O)c(OC)c2)ccc1O [20a]
inhibition of the activation of NF-κB by TNFα (screen) (NF-κB): more active than curcumin

activity in the AP-1 cellular assay (screen) (AP-1): more active than curcumin
SMILES: COc1cccc(/C=C/C(=O)/C=C/c2cccc(OC)c2OC)c1OC [20d]

activity in the AP-1 cellular assay (screen) (AP-1): Active
SMILES: O=C(O)c1ccc(C(=O)/C=C/c2ccccc2)cc1 [46ad]
activity in the FRAP assay ([1]; 10 μM in ethanol): active

SMILES: COc1cc(CCC(=O)/C=C(\O)CCc2ccc(O)c(OC)c2)ccc1O [13a]
activity in the FRAP assay ([1]; 10 μM in ethanol): potent antioxidant activity
activity in the TRAP assay ([2]; 10 μM in ethanol): more active than curcumin
